The numbers were not newly measured in US20160206673A1, “Composition and Method for Improving Sexual Performance” (priority 2015, published 2016), which cites them from elsewhere.

Data set [1] has as its system men with erectile dysfunction. The conditions noted are these: background evidence.
The test system of data set [2] is men with erectile dysfunction. The conditions noted are these: oral medications.

With `N=C(N)NCCC[C@H](N)C(=O)O` [L-arginine], in data set [1], the “effect on sexual function / erectile dysfunction” value was “improves erectile dysfunction”; the “side effects / safety” value is “nausea, cramps and diarrhea”.

Regarding `COC(=O)[C@@H]1[C@H]2C[C@H]3c4[nH]c5ccccc5c4CCN3C[C@@H]2CC[C@@H]1O` [Yohimbine], in data set [1], the “effect on sexual function / erectile dysfunction” value is “can improve sexual dysfunction associated with a drug used to treat depression”; the “side effects / safety” value was “increased blood pressure, fast or irregular heartbeat, and anxiety”.

As for `C[C@]12CC[C@H](O)CC1=CC[C@@H]1[C@@H]2CC[C@]2(C)C(=O)CC[C@@H]12` [DHEA, dehydroepiandrosterone], in data set [1], the “effect on sexual function / erectile dysfunction” value was “increases libido in women and helps erectile dysfunction in men”.

On to `CCCc1nn(C)c2c(=O)[nH]c(-c3cc(S(=O)(=O)N4CCN(C)CC4)ccc3OCC)nc12` [sildenafil], for which the “duration of erection helping effects” value in data set [2] is listed as “up to eight”.
